The record followed here is ChEMBL document CHEMBL1158536, “How well can the Caco-2/Madin-Darby canine kidney models predict effective human jejunal permeability?” (J Med Chem, 2010).

Data set [1] is described as follows: clinical. The conditions noted are these: human.
For data set [2] the following is noted: caco-2.
Data set [3] can be described thus: Octanol-water partition coefficient, log P of the compound. Type of data set: physicochemical.
A short description of data set [4]: Dissociation constant, pKa of the compound. It counts as physicochemical.
Data set [5] can be described thus: Absolute bioavailability in human. Type of data set: ADME, organism-based. The settings on record: in vivo.
The conditions of data set [6]: human.

Usually Papp stands for the rate of passage across a membrane or cell layer, normalised by area and donor concentration. Low readings indicate slow passage, high ones fast passage. For orientation: logP means a log measure of how a compound divides between an organic and an aqueous phase. On to `CC(C(=O)O)c1cccc(C(=O)c2ccccc2)c1` (configuration not stated) [KETOPROFEN], for which the Papp in data set [1] was found to be 840 ×10⁻⁶ cm/s. The compound also showed a Daq in data set [2] of 8 ×10⁻⁶ cm2/s. Further, the logP in data set [3] (read-out: logP) came out at 3.16.
What is called pKa is the pH at which an ionisable group is half protonated. Read a low pKa as a stronger acid or weaker base. As usually defined, the bioavailability is dose-corrected exposure relative to a reference, in per cent. The low end stands for little systemic uptake, the high end for much systemic uptake. In data set [4], `NCCCC[C@H](N[C@@H](CCc1ccccc1)C(=O)O)C(=O)N1CCC[C@H]1C(=O)O` [LISINOPRIL ANHYDROUS] returned a pKa of 3.16. The same compound displayed a bioavailability in data set [5] of 27%. Further, the logP in data set [3] (read-out: logP) is -2.86.
`CCOC(=O)[C@H](CCc1ccccc1)N[C@@H](C)C(=O)N1CCC[C@H]1C(=O)O` gave a Papp in data set [1] of 157 ×10⁻⁶ cm/s. In data set [4], this compound displayed a pKa of 2.92. Moreover, the Daq in data set [2] is listed as 6.7 ×10⁻⁶ cm2/s. Moreover, the bioavailability in data set [5] worked out at 51%. The logP in data set [3] (read-out: logP) is -1.39.
`Cc1cc(=O)n(-c2ccccc2)n1C` [ANTIPYRINE] yielded a permeability in data set [6] of 2.07 ×10⁻⁴ cm/s. For the same compound, the pKa in data set [4] was found to be 1.3. For the same compound, the Daq in data set [2] came to 9.2 ×10⁻⁶ cm2/s. Further, the bioavailability in data set [5] worked out at 99%.
In data set [1], `O=c1c(O[C@@H]2O[C@H](CO)[C@@H](O)[C@H](O)[C@H]2O)c(-c2ccc(O[C@@H]3O[C@H](CO)[C@@H](O)[C@H](O)[C@H]3O)c(O)c2)oc2cc(O)cc(O)c12` showed a Papp of 890 ×10⁻⁶ cm/s. This compound also registered a pKa in data set [4] of 6.9. Besides, the Daq in data set [2] turned out to be 6.1 ×10⁻⁶ cm2/s. For the same compound, the bioavailability in data set [5] was 60%. Besides, the logP in data set [3] (read-out: logP) came out at 3.24.
Consider `CC(C)C[C@H](N)C(=O)O` [LEUCINE], for which, in data set [1], the Papp was found to be 620 ×10⁻⁶ cm/s. Also, in data set [4], the pKa was 2.38. The Daq in data set [2] is reported as 10.9 ×10⁻⁶ cm2/s. Moreover, the bioavailability in data set [5] was determined as 100%.
In data set [6], `C[S+]([O-])CCCCN=C=S` (configuration not stated) [SULFORAPHANE] returned a permeability of 18.7 ×10⁻⁴ cm/s. The Daq in data set [2] is recorded as 9.5 ×10⁻⁶ cm2/s. Also, the bioavailability in data set [5] is 74%. Further, the logP in data set [3] (read-out: logP) came to 1.68.
Regarding `NC(CO)C(=O)NNCc1ccc(O)c(O)c1O` (configuration not stated) [BENSERAZIDE], in data set [1], the Papp was 290 ×10⁻⁶ cm/s. The compound further came in with a pKa in data set [4] of 6.19. This compound yielded a Daq in data set [2] of 8 ×10⁻⁶ cm2/s. In data set [5], this compound yielded a bioavailability of 70%. Further, in data set [3] (read-out: logP), the logP was -1.78.
For `CC(C)[C@H](N)C(=O)OCCOCn1cnc2c(=O)[nH]c(N)nc21` [VALACYCLOVIR], in data set [1], the Papp worked out at 166 ×10⁻⁶ cm/s. The compound also had a pKa in data set [4] of 7.4. In addition, in data set [2], the Daq is reported as 7.2 ×10⁻⁶ cm2/s. For the same compound, the bioavailability in data set [5] stood at 80%. For the same compound, the logP in data set [3] (read-out: logP) is -1.04.
Compound `CC1=C(/C=C/C(C)=C/C=C/C(C)=C/C(=O)O)C(C)(C)CCC1` [TRETINOIN] registered a Papp in data set [1] of 99 ×10⁻⁶ cm/s. Besides, the Daq in data set [2] stood at 7.5 ×10⁻⁶ cm2/s. This compound also returned a bioavailability in data set [5] of 90%.
In turn, `OC[C@H]1OC(O)[C@H](O)[C@@H](O)[C@@H]1O` (some centres not stated) [DEXTROSE] gave a Papp in data set [1] of 560 ×10⁻⁶ cm/s. This compound displayed a Daq in data set [2] of 9.4 ×10⁻⁶ cm2/s. Besides, in data set [5], the bioavailability came to 100%. For the same compound, the logP in data set [3] (read-out: logP) was -0.67.
In data set [1], `N[C@@H](Cc1ccc(O)c(O)c1)C(=O)O` [LEVODOPA] showed a Papp of 340 ×10⁻⁶ cm/s. In addition, in data set [4], the pKa came to 2.21. Also, the Daq in data set [2] was 9 ×10⁻⁶ cm2/s. This compound also displayed a bioavailability in data set [5] of 100%. In addition, the logP in data set [3] (read-out: logP) is -3.
For `CN1C(C(=O)Nc2ccccn2)=C(O)c2ccccc2S1(=O)=O` [PIROXICAM], the Papp in data set [1] worked out at 665 ×10⁻⁶ cm/s. For the same compound, the Daq in data set [2] is recorded as 7.1 ×10⁻⁶ cm2/s. The compound further returned a bioavailability in data set [5] of 100%.
Take `N=C(N)NC(=O)c1nc(Cl)c(N)nc1N` [AMILORIDE]: the Papp in data set [1] stood at 163 ×10⁻⁶ cm/s. In data set [2], this compound came in with a Daq of 8.4 ×10⁻⁶ cm2/s. Moreover, the bioavailability in data set [5] is 50%. In addition, in data set [3] (read-out: logP), the logP was -0.26.
With `N=C(N)NCCCNC(=O)[C@@H]1CCCCN1C(=O)[C@@H](CC1CCCCC1)NCC(=O)O` [INOGATRAN], the pKa in data set [4] came to 1.6. The same compound came in with a bioavailability in data set [5] of 5%. Moreover, the logP in data set [3] (read-out: logP) was -0.6.
On to `CCCCc1nc(Cl)c(CO)n1Cc1ccc(-c2ccccc2-c2nn[nH]n2)cc1` [LOSARTAN], for which the Papp in data set [1] turned out to be 114 ×10⁻⁶ cm/s. The compound also showed a pKa in data set [4] of 2.95. In data set [2], this compound yielded a Daq of 6.4 ×10⁻⁶ cm2/s. Further, the bioavailability in data set [5] is 50%. For the same compound, in data set [3] (read-out: logP), the logP stood at 3.74.
On to `C[C@H](N[C@@H](CCc1ccccc1)C(=O)O)C(=O)N1CCC[C@H]1C(=O)O` [ENALAPRILAT ANHYDROUS], for which the Papp in data set [1] was found to be 10 ×10⁻⁶ cm/s. In data set [4], the pKa came out at 3.2. The compound further yielded a Daq in data set [2] of 7 ×10⁻⁶ cm2/s. In data set [5], this compound displayed a bioavailability of 8%.
The compound `CC(C)n1c(/C=C/C(O)CC(O)CC(=O)O)c(-c2ccc(F)cc2)c2ccccc21` (configuration not stated) [FLUVASTATIN] had a Papp in data set [1] of 238 ×10⁻⁶ cm/s. Also, the Daq in data set [2] is given as 6.5 ×10⁻⁶ cm2/s. This compound also registered a bioavailability in data set [5] of 95%.
`CC(C)(C)NCC(O)c1cc(O)cc(O)c1` (configuration not stated) [TERBUTALINE] returned a Papp in data set [1] of 30 ×10⁻⁶ cm/s. In data set [4], this compound displayed a pKa of 8.67. The same compound displayed a Daq in data set [2] of 8.5 ×10⁻⁶ cm2/s. In data set [3] (read-out: logP), the logP was -0.08.
In data set [1], `CNC(=C[N+](=O)[O-])NCCSCc1ccc(CN(C)C)o1` [RANITIDINE] showed an apparent permeability (Papp) of 27.3 ×10⁻⁶ cm/s. Besides, the pKa in data set [4] is 2.11. The Daq in data set [2] is on record as 7.3 ×10⁻⁶ cm2/s. The same compound displayed a bioavailability in data set [5] of 50%.
Taken in the same sequence, the figures for `N[C@@H](Cc1ccccc1)C(=O)O` [PHENYLALANINE] were 336 ×10⁻⁶ cm/s, 2.2, 9.8 ×10⁻⁶ cm2/s and 100%.
`CN/C(=N/CCSCc1nc[nH]c1C)NC#N` [CIMETIDINE] registered a Papp in data set [1] of 26 ×10⁻⁶ cm/s. The compound further had a pKa in data set [4] of 6.76. The Daq in data set [2] is given as 8.1 ×10⁻⁶ cm2/s. Also, the bioavailability in data set [5] stood at 60%.
For the compound `CN1CC(=O)NC1=N` [CREATININE], the Papp in data set [1] was determined as 29 ×10⁻⁶ cm/s. Moreover, the pKa in data set [4] was 4.66. The compound further gave a Daq in data set [2] of 11.6 ×10⁻⁶ cm2/s. Further, in data set [5], the bioavailability is 80%. In data set [3], the logP is -3.
In data set [1], `NS(=O)(=O)c1cc2c(cc1Cl)NCNS2(=O)=O` [HYDROCHLOROTHIAZIDE] returned a Papp of 4 ×10⁻⁶ cm/s. The Daq in data set [2] was determined as 7.5 ×10⁻⁶ cm2/s. In data set [5], this compound showed a bioavailability of 55%. Besides, in data set [3] (read-out: logP), the logP was -0.03.
Consider `O=C(O)c1ccccc1O` [SALICYLIC ACID], for which the Papp in data set [1] worked out at 267 ×10⁻⁶ cm/s. This compound showed a Daq in data set [2] of 10.6 ×10⁻⁶ cm2/s. In data set [5], this compound came in with a bioavailability of 100%.
`CC(=O)Nc1ccc(O)cc1` [ACETAMINOPHEN] returned a permeability in data set [6] of 1.76 ×10⁻⁴ cm/s. Moreover, the pKa in data set [4] came to 9.63. The Daq in data set [2] was found to be 10.2 ×10⁻⁶ cm2/s. Moreover, in data set [5], the bioavailability turned out to be 85%.
Turning to `NC(N)=O` [UREA], the Papp in data set [1] was determined as 140 ×10⁻⁶ cm/s. In data set [2], this compound registered a Daq of 15.5 ×10⁻⁶ cm2/s. Besides, the logP in data set [3] (read-out: logP) is -1.64.
For the compound `C[C@](N)(Cc1ccc(O)c(O)c1)C(=O)O` [METHYLDOPA], the Papp in data set [1] stood at 10 ×10⁻⁶ cm/s. Besides, the pKa in data set [4] is 2.21. This compound also showed a Daq in data set [2] of 8.8 ×10⁻⁶ cm2/s. Besides, in data set [5], the bioavailability is 26%. Moreover, the logP in data set [3] (read-out: logP) is -3.
